“And” between values parts separate entries of the source, which are not always exact repeats. Equal entries are not always repeated. Toxic doses and inconclusive results are not listed.
System: BDF1 mice, intracerebral L1210 leukemia, survival T/C
Experiment: NCI In Vivo Anticancer Drug Screen. Data for tumor model L1210 Leukemia (intracerebral) in B6D2F1 (BDF1) mice
Settings: higher = longer survival
Experimental: The antitumor activity of compounds was measured in mice bearing transplantable tumors. Survival or tumor size were measured and the results are expressed as the measurement made in the treated group (T) divided by the measurement made in the vehicle treated control group (C). The tumor model used in this assay is L1210 Leukemia (intracerebral) in B6D2F1 (BDF1) mice

[1] = endpoint: mean survival time, dose: 1.0 mg/kg/injection, schedule: Q01DX009 (ip), vehicle: saline
[2] = endpoint: mean survival time, dose: 2.0 mg/kg/injection, schedule: Q01DX009 (ip), vehicle: saline
[3] = endpoint: mean survival time, dose: 8.0 mg/kg/injection, schedule: Q01DX001 (ip), vehicle: other
[4] = endpoint: mean survival time, dose: 24.0 mg/kg/injection, schedule: Q01DX001 (ip), vehicle: other

O=NN(CCCl)C(=O)NC1CCCC1
T/C (endpoint: mean survival time, dose: 18.0 mg/kg/injection, schedule: Q01DX001 (ip), vehicle: saline): 170 % of control | T/C (endpoint: mean survival time, dose: 19.0 mg/kg/injection, schedule: Q01DX001 (ip), vehicle: saline): 163 % of control and 234 % of control | T/C (endpoint: mean survival time, dose: 25.0 mg/kg/injection, schedule: Q01DX001 (ip), vehicle: saline): 157 % of control | T/C (endpoint: mean survival time, dose: 28.0 mg/kg/injection, schedule: Q01DX001 (ip), vehicle: saline): 264 % of control | T/C (endpoint: mean survival time, dose: 30.0 mg/kg/injection, schedule: Q01DX001 (ip), vehicle: saline): 157 % of control and 190 % of control | T/C (endpoint: mean survival time, dose: 38.0 mg/kg/injection, schedule: Q01DX001 (ip), vehicle: saline): 231 % of control and 244 % of control | T/C (endpoint: mean survival time, dose: 42.0 mg/kg/injection, schedule: Q01DX001 (ip), vehicle: saline): 250 % of control | T/C (endpoint: mean survival time, dose: 44.0 mg/kg/injection, schedule: Q01DX001 (ip), vehicle: saline): 234 % of control | T/C (endpoint: mean survival time, dose: 50.0 mg/kg/injection, schedule: Q01DX001 (ip), vehicle: saline): 333 % of control | T/C (endpoint: mean survival time, dose: 64.0 mg/kg/injection, schedule: Q01DX001 (ip), vehicle: saline): 278 % of control | T/C (endpoint: mean survival time, dose: 67.0 mg/kg/injection, schedule: Q01DX001 (ip), vehicle: saline): 209 % of control | T/C (endpoint: mean survival time, dose: 75.0 mg/kg/injection, schedule: Q01DX001 (ip), vehicle: saline): 431 % of control and 485 % of control | T/C (endpoint: mean survival time, dose: 100.0 mg/kg/injection, schedule: Q01DX001 (ip), vehicle: saline): 257 % of control and 284 % of control | T/C (endpoint: mean survival time, dose: 150.0 mg/kg/injection, schedule: Q01DX001 (ip), vehicle: saline): 273 % of control and 342 % of control and 363 % of control | T/C (endpoint: mean survival time, dose: 220.0 mg/kg/injection, schedule: Q01DX001 (ip), vehicle: saline): 101 % of control

CS(=O)(=O)CCN(N=O)C(=N)N[N+](=O)[O-]
T/C (endpoint: mean survival time, dose: 12.0 mg/kg/injection, schedule: Q01DX Z (ip), vehicle: carboxymethylcellulose (CMC)): 97 % of control | T/C (endpoint: mean survival time, dose: 24.0 mg/kg/injection, schedule: Q01DX Z (ip), vehicle: carboxymethylcellulose (CMC)): 100 % of control | T/C (endpoint: mean survival time, dose: 48.0 mg/kg/injection, schedule: Q01DX Z (ip), vehicle: carboxymethylcellulose (CMC)): 109 % of control | T/C (endpoint: mean survival time, dose: 96.0 mg/kg/injection, schedule: Q01DX Z (ip), vehicle: carboxymethylcellulose (CMC)): 90 % of control

CN(N=O)C(=O)NC(N)=O
T/C (endpoint: mean survival time, dose: 33.0 mg/kg/injection, schedule: Q01DX001 (ip), vehicle: carboxymethylcellulose (CMC)): 102 % of control | T/C (endpoint: mean survival time, dose: 50.0 mg/kg/injection, schedule: Q01DX001 (ip), vehicle: carboxymethylcellulose (CMC)): 105 % of control | T/C (endpoint: mean survival time, dose: 75.0 mg/kg/injection, schedule: Q01DX001 (ip), vehicle: carboxymethylcellulose (CMC)): 114 % of control | T/C (endpoint: mean survival time, dose: 112.0 mg/kg/injection, schedule: Q01DX001 (ip), vehicle: carboxymethylcellulose (CMC)): 115 % of control

COc1cccnc1/C=N/NC(N)=S
T/C (endpoint: median survival time, dose: 1.5 mg/kg/injection, schedule: Q01DX009 (ip), vehicle: saline with Tween-80): 101 % of control | T/C (endpoint: median survival time, dose: 3.0 mg/kg/injection, schedule: Q01DX009 (ip), vehicle: saline with Tween-80): 103 % of control | T/C (endpoint: median survival time, dose: 6.0 mg/kg/injection, schedule: Q01DX009 (ip), vehicle: saline with Tween-80): 110 % of control | T/C (endpoint: median survival time, dose: 12.0 mg/kg/injection, schedule: Q01DX009 (ip), vehicle: saline with Tween-80): 153 % of control

O=NN(CCF)C(=O)NC1CSCSC1
T/C (endpoint: mean survival time, dose: 3.7 mg/kg/injection, schedule: Q01DX001 (ip), vehicle: other): 111 % of control | T/C (endpoint: mean survival time, dose: 7.0 mg/kg/injection, schedule: Q01DX001 (ip), vehicle: other): 120 % of control and 123 % of control | T/C (endpoint: mean survival time, dose: 15.0 mg/kg/injection, schedule: Q01DX001 (ip), vehicle: other): 163 % of control | T/C (endpoint: mean survival time, dose: 28.0 mg/kg/injection, schedule: Q01DX001 (ip), vehicle: other): 176 % of control | T/C (endpoint: mean survival time, dose: 31.0 mg/kg/injection, schedule: Q01DX001 (ip), vehicle: other): 177 % of control and 278 % of control | T/C (endpoint: mean survival time, dose: 41.0 mg/kg/injection, schedule: Q01DX001 (ip), vehicle: other): 291 % of control | T/C (endpoint: mean survival time, dose: 62.0 mg/kg/injection, schedule: Q01DX001 (ip), vehicle: other): 290 % of control and 337 % of control

OC(C1CO1)C(O)C1CO1 (centres undefined)
T/C (endpoint: mean survival time, dose: 0.65 mg/kg/injection, schedule: Q01DX009 (ip), vehicle: water): 96 % of control | T/C [1]: 109 % of control and 120 % of control | T/C (endpoint: mean survival time, dose: 1.08 mg/kg/injection, schedule: Q01DX009 (ip), vehicle: water): 110 % of control | T/C (endpoint: mean survival time, dose: 1.8 mg/kg/injection, schedule: Q01DX009 (ip), vehicle: water): 123 % of control | T/C [2]: 92 % of control | T/C (endpoint: mean survival time, dose: 2.0 mg/kg/injection, schedule: Q03HX024 (ip), vehicle: saline): 87 % of control | T/C (endpoint: mean survival time, dose: 2.5 mg/kg/injection, schedule: Q01DX001 (ip), vehicle: water): 109 % of control | T/C (endpoint: mean survival time, dose: 4.0 mg/kg/injection, schedule: Q01DX009 (ip), vehicle: saline): 103 % of control and 92 % of control | T/C (endpoint: mean survival time, dose: 20.0 mg/kg/injection, schedule: Q01DX001 (ip), vehicle: water): 104 % of control | T/C (endpoint: mean survival time, dose: 40.0 mg/kg/injection, schedule: Q01DX001 (ip), vehicle: water): 102 % of control | T/C (endpoint: median survival time, dose: 0.5 mg/kg/injection, schedule: Q01DX001 (oral), vehicle: saline): 106 % of control | T/C (endpoint: median survival time, dose: 4.0 mg/kg/injection, schedule: Q01DX001 (oral), vehicle: saline): 115 % of control | T/C (endpoint: median survival time, dose: 8.0 mg/kg/injection, schedule: Q01DX001 (oral), vehicle: saline): 97 % of control | T/C (endpoint: median survival time, dose: 16.0 mg/kg/injection, schedule: Q01DX001 (oral), vehicle: saline): 86 % of control

N[C@H](C(=O)O)[C@@H]1CC(Cl)=NO1
T/C [1]: 109 % of control | T/C [2]: 114 % of control | T/C (endpoint: mean survival time, dose: 16.0 mg/kg/injection, schedule: Q01DX009 (ip), vehicle: saline): 116 % of control | T/C (endpoint: mean survival time, dose: 32.0 mg/kg/injection, schedule: Q01DX009 (ip), vehicle: saline): 100 % of control | T/C (endpoint: median survival time, dose: 4.0 mg/kg/injection, schedule: Q01DX009 (ip), vehicle: saline): 120 % of control | T/C (endpoint: median survival time, dose: 8.0 mg/kg/injection, schedule: Q01DX009 (ip), vehicle: saline): 124 % of control | T/C (endpoint: median survival time, dose: 32.0 mg/kg/injection, schedule: Q01DX009 (ip), vehicle: saline): 100 % of control | T/C (endpoint: median survival time, dose: 64.0 mg/kg/injection, schedule: Q01DX009 (ip), vehicle: saline): 100 % of control

CN(C)C(=O)c1ccc(NC(=O)N(CCCl)N=O)cc1
T/C [3]: 110 % of control | T/C [4]: 121 % of control

O=NN(CCCl)C(=O)NC1CCC(=O)NC1=O (centres undefined)
T/C (endpoint: mean survival time, dose: 2.1 mg/kg/injection, schedule: Q01DX001 (ip), vehicle: other): 106 % of control and 116 % of control | T/C (endpoint: mean survival time, dose: 4.0 mg/kg/injection, schedule: Q01DX001 (ip), vehicle: other): 156 % of control and 226 % of control | T/C [3]: 159 % of control and 161 % of control and 183 % of control | T/C (endpoint: mean survival time, dose: 8.0 mg/kg/injection, schedule: Q01DX001 (ip), vehicle: saline with Tween-80): 352 % of control | T/C (endpoint: mean survival time, dose: 11.0 mg/kg/injection, schedule: Q01DX001 (ip), vehicle: other): 251 % of control | T/C (endpoint: mean survival time, dose: 12.0 mg/kg/injection, schedule: Q01DX001 (ip), vehicle: other): 298 % of control and 327 % of control | T/C (endpoint: mean survival time, dose: 13.0 mg/kg/injection, schedule: Q01DX001 (ip), vehicle: saline with Tween-80): 542 % of control | T/C (endpoint: mean survival time, dose: 16.0 mg/kg/injection, schedule: Q01DX001 (ip), vehicle: other): 274 % of control and 328 % of control | T/C (endpoint: mean survival time, dose: 17.0 mg/kg/injection, schedule: Q01DX001 (ip), vehicle: other): 389 % of control and 498 % of control | T/C (endpoint: mean survival time, dose: 20.0 mg/kg/injection, schedule: Q01DX001 (ip), vehicle: saline with Tween-80): 625 % of control | T/C (endpoint: mean survival time, dose: 22.0 mg/kg/injection, schedule: Q01DX001 (ip), vehicle: other): 251 % of control | T/C [4]: 238 % of control and 335 % of control | T/C (endpoint: mean survival time, dose: 30.0 mg/kg/injection, schedule: Q01DX001 (ip), vehicle: saline with Tween-80): 107 % of control | T/C (endpoint: mean survival time, dose: 33.0 mg/kg/injection, schedule: Q01DX001 (ip), vehicle: other): 297 % of control | T/C (endpoint: mean survival time, dose: 35.0 mg/kg/injection, schedule: Q01DX001 (ip), vehicle: other): 287 % of control and 353 % of control | T/C (endpoint: mean survival time, dose: 36.0 mg/kg/injection, schedule: Q01DX001 (ip), vehicle: other): 205 % of control | T/C (endpoint: mean survival time, dose: 44.0 mg/kg/injection, schedule: Q01DX001 (ip), vehicle: other): 275 % of control

CCCCCCCCSc1ncnc2c1ncn2CCCC
T/C (endpoint: mean survival time, dose: 125.0 mg/kg/injection, schedule: Q01DX001 (ip), vehicle: saline): 106 % of control | T/C (endpoint: mean survival time, dose: 250.0 mg/kg/injection, schedule: Q01DX001 (ip), vehicle: saline): 112 % of control | T/C (endpoint: mean survival time, dose: 500.0 mg/kg/injection, schedule: Q01DX001 (ip), vehicle: saline): 106 % of control | T/C (endpoint: mean survival time, dose: 1000.0 mg/kg/injection, schedule: Q01DX001 (ip), vehicle: saline): 101 % of control

From PubChem BioAssay AID252 (DTP/NCI, 2004)
